Data set [1] in a line: H+/Na+ transport assay of bead-derived peptides (one-point).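 Also: relative to parent gramicidin A activity set to 1.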 Conditions: bead-derived peptide solution, EYPC/EYPG LUVs. On the set-up: key: relative activity; mean of two control wells = 1.00. In kind it is biochemical. The gist of the method: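 Miniaturized 96-well format. LUVs with entrapped pyranine (1.0 mM) were exposed to peptide for 30 min at RT. Intensities were expressed relative to full lysis by Triton X-100 and no treatment, with control-well mean = 1.00.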

The subject of data set [2] is P388 mouse leukemia cells. The following applies: 92 h. An outline of the steps:
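Peptide stocks diluted 250× in growth medium; P388 cells 1 × 10^4 cells/mL final; 37 °C, 5% CO2, 92 h. WST-1 + 1-methoxy PMS, 4 h, A415. Output: % viability.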

For data set [3], the system named is Streptococcus pyogenes SSI-9. Description: Antibacterial activity assay of bead-derived peptides (three concentrations). The following applies: S. pyogenes, bead-derived peptide solution, three concentrations. Details: key: +++: inhibition by the 640-fold diluted peptide solution; ++: inhibition by the 160-fold diluted solution; +: inhibition by the 40-fold diluted solution; -: no inhibition. The format is cell-based. The gist of the method:
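Growth inhibition scored visually as precipitated bacteria after 37 °C, 18 h incubation. Streptococcus pyogenes SSI-9 inoculum of 2 × 10^5 CFU in Ca2+/Mg2+-adjusted Mueller Hinton broth plus 5% laked horse blood; peptides tested at three levels: stock, 4-fold and 16-fold DMSO dilutions.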

Where a SMILES comes first, the peptide text is derived from it. [ ]: non-standard residue; d: D form. The star is where a group is joined. NHCH2CH2OH = OCCN*; For = O=C*

Regarding `CC(C)C[C@@H](NC(=O)[C@H](C)NC(=O)[C@H](NC(=O)[C@H](C)NC(=O)CNC(=O)[C@@H](NC=O)C(C)C)C(C)C)C(=O)N[C@H](C(=O)N[C@@H](C(=O)N[C@@H](Cc1c[nH]c2ccccc12)C(=O)N[C@@H](C(=O)N[C@@H](Cc1c[nH]c2ccccc12)C(=O)N[C@H](CC(C)C)C(=O)N[C@@H](Cc1c[nH]c2ccccc12)C(=O)N[C@@H](C(=O)N[C@@H](Cc1c[nH]c2ccccc12)C(=O)NCCO)C(C)C)C(C)C)C(C)C)C(C)C` [compound 12950] (For-VGA[dV]A[dL]V[dV]W[dV]W[dL]W[dV]W-NHCH2CH2OH), the “H+/Na+ transport activity normalized against the value of 1 (1.00)” value (from here on “H+/Na+ transport activity normalized”) in data set [1] was found to be 1.08. The cell viability/% in data set [2] amounted to 97.0%. Further, the antibacterial activity result in data set [3] is reported as “+”.

As for `CC(C)C[C@@H](NC(=O)[C@H](C)NC(=O)CNC(=O)[C@@H](NC=O)C(C)C)C(=O)N[C@@H](C)C(=O)N[C@@H](C(=O)N[C@H](C(=O)N[C@@H](C(=O)N[C@@H](Cc1c[nH]c2ccccc12)C(=O)N[C@H](CC(C)C)C(=O)N[C@@H](Cc1c[nH]c2ccccc12)C(=O)N[C@H](CC(C)C)C(=O)N[C@@H](Cc1c[nH]c2ccccc12)C(=O)N[C@H](CC(C)C)C(=O)N[C@@H](Cc1c[nH]c2ccccc12)C(=O)NCCO)C(C)C)C(C)C)C(C)C` [compound 12972] (For-VGA[dL]A[dV]V[dV]W[dL]W[dL]W[dL]W-NHCH2CH2OH), the “H+/Na+ transport activity normalized” value in data set [1] is on record as 1.33. Also, the cell viability/% in data set [2] came out at 0.0%. Moreover, in data set [3], the antibacterial activity entry is “++”.

For the compound `CNC(=O)C[C@@H](NC(=O)[C@@H](NC(=O)[C@@H](CC(C)C)NC(=O)[C@H](C)NC(=O)[C@H](NC(=O)[C@H](C)NC(=O)CNC(=O)[C@@H](NC=O)C(C)C)C(C)C)C(C)C)C(=O)N[C@@H](Cc1c[nH]c2ccccc12)C(=O)N[C@@H](C(=O)N[C@@H](Cc1c[nH]c2ccccc12)C(=O)N[C@H](CC(C)C)C(=O)N[C@@H](Cc1c[nH]c2ccccc12)C(=O)N[C@H](CC(C)C)C(=O)N[C@@H](Cc1c[nH]c2ccccc12)C(=O)NCCO)C(C)C` [compound 12975] (For-VGA[dV]A[dL]V[dD](NHMe)W[dV]W[dL]W[dL]W-NHCH2CH2OH), in data set [1], the “H+/Na+ transport activity normalized” value stood at 1.43. For the same compound, the cell viability/% in data set [2] amounted to 86.0%. For the same compound, the antibacterial activity entry in data set [3] is “-”.

Consider `CC(C)C[C@@H](NC(=O)[C@H](C)NC(=O)CNC(=O)[C@@H](NC=O)C(C)C)C(=O)N[C@@H](C)C(=O)N[C@@H](C(=O)N[C@H](C(=O)N[C@H](CC(C)C)C(=O)N[C@@H](Cc1c[nH]c2ccccc12)C(=O)N[C@@H](C(=O)N[C@@H](Cc1c[nH]c2ccccc12)C(=O)N[C@@H](C(=O)N[C@@H](Cc1c[nH]c2ccccc12)C(=O)N[C@@H](C(=O)N[C@@H](Cc1c[nH]c2ccccc12)C(=O)NCCO)[C@H](C)O)C(C)C)C(C)C)C(C)C)C(C)C` [compound 12984] (For-VGA[dL]A[dV]V[dL]W[dV]W[dV]W[dT]W-NHCH2CH2OH), for which the “H+/Na+ transport activity normalized” value in data set [1] was determined as 1.08. Further, the cell viability/% in data set [2] amounted to 81.1%. In addition, the antibacterial activity entry in data set [3] is listed as “-”.

Regarding `CC(C)C[C@@H](NC(=O)[C@H](C)NC(=O)CNC(=O)[C@@H](NC=O)C(C)C)C(=O)N[C@@H](C)C(=O)N[C@H](CC(C)C)C(=O)N[C@H](C(=O)N[C@H](CC(C)C)C(=O)N[C@@H](Cc1c[nH]c2ccccc12)C(=O)N[C@H](CC(C)C)C(=O)N[C@@H](Cc1c[nH]c2ccccc12)C(=O)N[C@@H](C(=O)N[C@@H](Cc1c[nH]c2ccccc12)C(=O)N[C@@H](C(=O)N[C@@H](Cc1c[nH]c2ccccc12)C(=O)NCCO)C(C)C)[C@H](C)O)C(C)C` [compound 12989] (For-VGA[dL]A[dL]V[dL]W[dL]W[dT]W[dV]W-NHCH2CH2OH), the “H+/Na+ transport activity normalized” value in data set [1] is given as 1.16. The compound also yielded a cell viability/% in data set [2] of 100.0%. Further, the antibacterial activity entry in data set [3] is reported as “+”.

With `CC(C)C[C@@H](NC(=O)[C@H](C)NC(=O)[C@H](NC(=O)[C@H](C)NC(=O)CNC(=O)[C@@H](NC=O)C(C)C)C(C)C)C(=O)N[C@H](C(=O)N[C@@H](C(=O)N[C@@H](Cc1c[nH]c2ccccc12)C(=O)N[C@@H](C(=O)N[C@@H](Cc1c[nH]c2ccccc12)C(=O)N[C@@H](C(=O)N[C@@H](Cc1c[nH]c2ccccc12)C(=O)N[C@@H](C(=O)N[C@@H](Cc1c[nH]c2ccccc12)C(=O)NCCO)C(C)C)C(C)C)C(C)C)C(C)C)C(C)C` [compound 13030] (For-VGA[dV]A[dL]V[dV]W[dV]W[dV]W[dV]W-NHCH2CH2OH), the “H+/Na+ transport activity normalized” value in data set [1] amounted to 1.42. Moreover, the cell viability/% in data set [2] came out at 99.9%. For the same compound, the antibacterial activity entry in data set [3] is listed as “+”.

For `CC(C)C[C@@H](NC(=O)[C@H](Cc1c[nH]c2ccccc12)NC(=O)[C@H](NC(=O)[C@H](Cc1c[nH]c2ccccc12)NC(=O)[C@H](NC(=O)[C@H](Cc1c[nH]c2ccccc12)NC(=O)[C@H](NC(=O)[C@@H](NC(=O)[C@H](NC(=O)[C@H](C)NC(=O)[C@H](NC(=O)[C@H](C)NC(=O)CNC(=O)[C@@H](NC=O)C(C)C)C(C)C)[C@H](C)O)C(C)C)C(C)C)C(C)C)C(C)C)C(=O)N[C@@H](Cc1c[nH]c2ccccc12)C(=O)NCCO` [compound 13062] (For-VGA[dV]A[dT]V[dV]W[dV]W[dV]W[dL]W-NHCH2CH2OH), the “H+/Na+ transport activity normalized” value in data set [1] is 1.06. The same compound returned a cell viability/% in data set [2] of 92.8%. The antibacterial activity result in data set [3] is recorded as “-”.

As to `CNC(=O)C[C@@H](NC(=O)[C@H](C)NC(=O)[C@@H](CC(C)C)NC(=O)[C@H](C)NC(=O)CNC(=O)[C@@H](NC=O)C(C)C)C(=O)N[C@H](C(=O)N[C@@H](C(=O)N[C@@H](Cc1c[nH]c2ccccc12)C(=O)N[C@H](CC(C)C)C(=O)N[C@@H](Cc1c[nH]c2ccccc12)C(=O)N[C@@H](C(=O)N[C@@H](Cc1c[nH]c2ccccc12)C(=O)N[C@H](CC(C)C)C(=O)N[C@@H](Cc1c[nH]c2ccccc12)C(=O)NCCO)C(C)C)C(C)C)C(C)C` [compound 13123] (For-VGA[dL]A[dD](NHMe)V[dV]W[dL]W[dV]W[dL]W-NHCH2CH2OH), the “H+/Na+ transport activity normalized” value in data set [1] is reported as 1.24. In data set [2], the cell viability/% came to 100.0%. The antibacterial activity result in data set [3] is on record as “-”.

`CC(C)C[C@@H](NC(=O)[C@H](C)NC(=O)CNC(=O)[C@@H](NC=O)C(C)C)C(=O)N[C@@H](C)C(=O)N[C@H](CC(C)C)C(=O)N[C@H](C(=O)N[C@@H](C(=O)N[C@@H](Cc1c[nH]c2ccccc12)C(=O)N[C@@H](C(=O)N[C@@H](Cc1c[nH]c2ccccc12)C(=O)N[C@@H](C(=O)N[C@@H](Cc1c[nH]c2ccccc12)C(=O)N[C@@H](C(=O)N[C@@H](Cc1c[nH]c2ccccc12)C(=O)NCCO)C(C)C)C(C)C)C(C)C)C(C)C)C(C)C` [compound 13128] (For-VGA[dL]A[dL]V[dV]W[dV]W[dV]W[dV]W-NHCH2CH2OH): in data set [1], the “H+/Na+ transport activity normalized” value was determined as 1.24. Moreover, the cell viability/% in data set [2] amounted to 100.0%. For the same compound, in data set [3], the antibacterial activity result is on record as “+”.

On to `CC(C)C[C@@H](NC(=O)[C@H](C)NC(=O)[C@H](NC(=O)[C@H](C)NC(=O)CNC(=O)[C@@H](NC=O)C(C)C)C(C)C)C(=O)N[C@H](C(=O)N[C@H](CC(C)C)C(=O)N[C@@H](Cc1c[nH]c2ccccc12)C(=O)N[C@@H](C(=O)N[C@@H](Cc1c[nH]c2ccccc12)C(=O)N[C@@H](C(=O)N[C@@H](Cc1c[nH]c2ccccc12)C(=O)N[C@@H](C(=O)N[C@@H](Cc1c[nH]c2ccccc12)C(=O)NCCO)[C@H](C)O)C(C)C)C(C)C)C(C)C` [compound 13147] (For-VGA[dV]A[dL]V[dL]W[dV]W[dV]W[dT]W-NHCH2CH2OH), for which, in data set [1], the “H+/Na+ transport activity normalized” value is recorded as 1.09. In data set [2], this compound yielded a cell viability/% of 94.4%. In addition, in data set [3], the antibacterial activity entry is given as “-”.

In the case of `CC(C)C[C@@H](NC(=O)[C@H](C)NC(=O)[C@H](NC(=O)[C@H](C)NC(=O)CNC(=O)[C@@H](NC=O)C(C)C)C(C)C)C(=O)N[C@H](C(=O)N[C@@H](C(=O)N[C@@H](Cc1c[nH]c2ccccc12)C(=O)N[C@@H](C(=O)N[C@@H](Cc1c[nH]c2ccccc12)C(=O)N[C@H](CC(C)C)C(=O)N[C@@H](Cc1c[nH]c2ccccc12)C(=O)N[C@@H](C(=O)N[C@@H](Cc1c[nH]c2ccccc12)C(=O)NCCO)C(C)C)C(C)C)[C@H](C)O)C(C)C` [compound 13174] (For-VGA[dV]A[dL]V[dT]W[dV]W[dL]W[dV]W-NHCH2CH2OH), in data set [1], the “H+/Na+ transport activity normalized” value is 1.18. The same compound had a cell viability/% in data set [2] of 100.0%. Besides, the antibacterial activity entry in data set [3] is on record as “-”.

On to `CC(C)C[C@@H](NC(=O)[C@H](C)NC(=O)CNC(=O)[C@@H](NC=O)C(C)C)C(=O)N[C@@H](C)C(=O)N[C@@H](C(=O)N[C@H](C(=O)N[C@H](CC(C)C)C(=O)N[C@@H](Cc1c[nH]c2ccccc12)C(=O)N[C@H](CC(C)C)C(=O)N[C@@H](Cc1c[nH]c2ccccc12)C(=O)N[C@@H](C(=O)N[C@@H](Cc1c[nH]c2ccccc12)C(=O)N[C@H](CC(C)C)C(=O)N[C@@H](Cc1c[nH]c2ccccc12)C(=O)NCCO)C(C)C)C(C)C)C(C)C` [compound 13252] (For-VGA[dL]A[dV]V[dL]W[dL]W[dV]W[dL]W-NHCH2CH2OH), for which, in data set [1], the “H+/Na+ transport activity normalized” value amounted to 1.14. The same compound showed a cell viability/% in data set [2] of 2.6%. For the same compound, the antibacterial activity result in data set [3] is reported as “-”.

The values above are taken from PMC7531004, “Discovery of gramicidin A analogues with altered activities by multidimensional screening of a one-bead-one-compound library” (Nature Communications, 2020).
